Here are results for 8 compounds from the NIST ThermoML archive (doi:10.1021/je800863c).

SMILES strings stand for the structures. ± gives the expanded uncertainty stated by the source.

The conditions of the series: for surface tension liquid-gas: Pendant drop shape; for viscosity / mass density: 101.33 kPa, Liquid; for viscosity: Falling or rolling sphere viscometry; for mass density: Vibrating tube method.

In general, surface tension liquid-gas refers to the work needed to enlarge the surface of a liquid by unit area. In general, viscosity refers to the internal friction of a fluid under shear. As usually defined, the mass density is mass per unit of volume. `COS(=O)(=O)[O-].Cn1cc[n+](C)c1` [1,3-dimethylimidazolium methylsulfate]: where the note is “298.15 K”, the surface tension liquid-gas was determined as 59.42 ± 0.8 mN/m, the viscosity came out at 75.5 ± 4.7 mPa·s and the mass density amounted to 1328.38 ± 1.6 kg/m3. In addition, under “313.15 K”, the surface tension liquid-gas was found to be 58.99 ± 0.8 mN/m, the viscosity is given as 40.8 ± 2.5 mPa·s and the mass density was 1317.85 ± 1.6 kg/m3.

With `CCCCn1cc[n+](C)c1.CCOS(=O)(=O)[O-]` [1-butyl-3-methyl-1H-imidazolium ethyl sulfate], for the setting “298.15 K”, the surface tension liquid-gas is recorded as 36.38 ± 0.51 mN/m, the viscosity is given as 379.1 ± 33 mPa·s and the mass density turned out to be 1198.93 ± 1.3 kg/m3. For the setting “313.15 K”, the surface tension liquid-gas is listed as 33.91 ± 0.48 mN/m, the viscosity is reported as 164 ± 12 mPa·s and the mass density amounted to 1188.69 ± 1.2 kg/m3.

Turning to `CCCCn1cc[n+](C)c1.COS(=O)(=O)[O-]` [1-butyl-3-methylimidazolium methyl sulfate], for the setting “298.15 K”, the surface tension liquid-gas is 43.3 ± 1.2 mN/m and the mass density came out at 1212.95 ± 8 kg/m3. Moreover, where the note is “313.15 K”, the surface tension liquid-gas worked out at 42.09 ± 1.1 mN/m, the viscosity amounted to 104.2 ± 7.7 mPa·s and the mass density turned out to be 1199.75 ± 7.8 kg/m3.

For `CCOS(=O)(=O)[O-].CCn1cc[n+](C)c1` [1-ethyl-3-methylimidazolium ethyl sulfate], under “298.15 K”, the viscosity was determined as 91.8 ± 6.2 mPa·s and the mass density turned out to be 1236.26 ± 8.3 kg/m3. For the same compound, where the note is “313.15 K”, the surface tension liquid-gas came to 46.78 ± 1.2 mN/m, the viscosity was 48.5 ± 3.2 mPa·s and the mass density turned out to be 1226.79 ± 8.2 kg/m3.

`CCCCCCn1cc[n+](C)c1.CCOS(=O)(=O)[O-]` [1-hexyl-3-methylimidazolium ethyl sulfate]: for the setting “298.15 K”, the surface tension liquid-gas is given as 31.77 ± 0.45 mN/m, the viscosity was found to be 589 ± 57 mPa·s and the mass density worked out at 1150.6 ± 1.2 kg/m3. Besides, under “313.15 K”, the surface tension liquid-gas came to 29.63 ± 0.43 mN/m, the viscosity came out at 236 ± 19 mPa·s and the mass density turned out to be 1140.6 ± 1.1 kg/m3.

`CCCCCCn1cc[n+](C)c1.COS(=O)(=O)[O-]` [1-hexyl-3-methylimidazolium methyl sulfate]: where the note is “298.15 K”, the surface tension liquid-gas was found to be 33.59 ± 0.48 mN/m, the viscosity is on record as 383 ± 34 mPa·s and the mass density came out at 1168.83 ± 1.2 kg/m3. Besides, where the note is “313.15 K”, the surface tension liquid-gas is on record as 33.54 ± 0.48 mN/m, the viscosity amounted to 164.3 ± 12 mPa·s and the mass density was determined as 1158.87 ± 1.2 kg/m3.

Turning to `CCCCCCCC[n+]1ccn(C)c1.CCOS(=O)(=O)[O-]` [1-methyl-3-octylimidazolium ethyl sulfate], for the setting “298.15 K”, the surface tension liquid-gas is given as 28.67 ± 0.41 mN/m and the mass density is 1115.93 ± 1.1 kg/m3. Moreover, where the note is “313.15 K”, the surface tension liquid-gas came to 27.94 ± 0.41 mN/m, the viscosity is reported as 275.2 ± 25 mPa·s and the mass density stood at 1106.2 ± 1.1 kg/m3.

`CCCCCCCC[n+]1ccn(C)c1.COS(=O)(=O)[O-]` [1-methyl-3-octylimidazolium methyl sulfate]: under “298.15 K”, the surface tension liquid-gas turned out to be 30.41 ± 0.44 mN/m and the mass density was 1114.47 ± 1.1 kg/m3. Besides, for the setting “313.15 K”, the surface tension liquid-gas is listed as 30.03 ± 0.43 mN/m, the viscosity amounted to 180.6 ± 15 mPa·s and the mass density is 1104.64 ± 1.1 kg/m3.
